Experimental data from patent publication US20090226500A1, “SUTURES AND ANTI-SCARRING AGENTS” (Angiotech Pharmaceuticals, Inc, priority 2006, published 2009).
pIC50: −log10 of the molar value. Structures can show the parent of a compound that is named as a salt. Where two headings read alike, the source gives them in different places.

Legend:
[1] = test system: E. coli UB1005 C498; assay: MIC microtitre broth dilution, E. coli; format: cell-based; conditions: E. coli UB1005 C498 wt Gram−, 24 h
Experimental: (§1) MIC assays were conducted essentially as described by Amsterdam, D 1996, “Susceptibility testing of antimicrobials in liquid media”, p. 52-111, in Loman, V, ed. Antibiotics in laboratory medicine, 4th ed Williams and Wilkins, Baltimore, Md.

[2] = test system: S. pyogenes C721; assay: MIC microtitre broth dilution, S. pyogenes; format: cell-based; conditions: S. pyogenes C721 wt Gram+, Todd Hewitt broth
Experimental: as §1

[3] = test system: S. aureus ATCC25923 C622; assay: MIC microtitre broth dilution, S. aureus; format: cell-based; conditions: S. aureus ATCC25923 C622 wt Gram+, 24 h
Experimental: as §1

[4] = test system: P. aeruginosa PAE/K799 H187; assay: MIC microtitre broth dilution, P. aeruginosa; format: cell-based; conditions: P. aeruginosa PAE/K799 H187 wt Gram−, 24 h
Experimental: as §1

[5] = test system: S. epidermidis C621; assay: MIC microtitre broth dilution, S. epidermidis; format: cell-based; conditions: S. epidermidis C621 wt Gram+, 24 h
Experimental: as §1

[6] = test system: K. pneumoniae ATCC13883 C238; assay: MIC microtitre broth dilution, K. pneumoniae; format: cell-based; conditions: K. pneumoniae ATCC13883 C238 wt Gram−, 24 h
Experimental: as §1

[7] = test system: MCP-1 production by THP-1 cells; assay: MCP-1 production by macrophages; format: cell-based, human; conditions: read-out: IC50 MCP-1 production
Experimental: (§2) The human macrophage cell line, THP-1 was plated in a 12 well plate such that each well contains 1×10^6 cells in 2 ml of media containing 10% FCS. Opsonized zymosan was prepared by resuspending 20 mg of zymosan A in 2 ml of ddH2O and homogenizing until a uniform suspension was obtained. Homogenized zymosan was pelleted at 250 g and resuspended in 4 ml of human serum for a final concentration of 5 mg/ml and incubated in a 37° C. water bath for 20 minutes to enable opsonization. Geldanamycin was prepared in DMSO at a concentration of 10^−2 M and serially diluted 10-fold to give a range of stock concentrations (10^−8 M to 10^−2 M).
(§3) THP-1 cells were stimulated to produce MCP-1 by the addition of 1 mg/ml opsonized zymosan. Eldanamycin was added to THP-1 cells by directly adding DMSO stock solutions, prepared earlier, at a 1/1000 dilution, to each well. Each drug concentration was tested in triplicate wells. Plates were incubated at 37° C. for 24 hours.
After a 24-hour stimulation, supernatants were collected to quantify MCP-1 production. MCP-1 concentrations in the supernatants were determined by ELISA using recombinant human MCP-1 to obtain a standard curve. A 96-well MaxiSorb plate was coated with 100 μL of anti-human MCP-1 Capture Antibody diluted in Coating Buffer (0.1M sodium carbonate pH 9.5) overnight at 4° C. The dilution of Capture Antibody used was lot-specific and was determined empirically. Capture antibody was then aspirated and the plate washed 3 times with Wash Buffer (PBS, 0.05% TWEEN-20). Plates were blocked for 1 hour at room temperature with 200 μL/well of Assay Diluent (PBS, 10% FCS pH 7.0). After blocking, plates were washed 3 times with Wash Buffer. […] Sample supernatants and standards were assayed in triplicate and were incubated at room temperature for 2 hours after addition to the plate coated with Capture Antibody. The plates were washed 5 times and incubated with 100 μL of Working Detector (biotinylated anti-human MCP-1 detection antibody+avidin-HRP) for 1 hour at room temperature. Following this incubation, the plates were washed 7 times and 100 μL of Substrate Solution (tetramethylbenzidine, H2O2) was added to plates and incubated for 30 minutes at room temperature. […] Mean absorbance was determined from triplicate data readings and the mean background was subtracted. MCP-1 concentration values were obtained from the standard curve.

[8] = test system: IL-8 production by THP-1 cells; assay: IL-8 production by macrophages; format: cell-based, human; conditions: THP-1 cells stimulated with opsonized zymosan, 24 hours, read-out: IC50 IL-8 production
Experimental: as §2, with “g,” for “g and”, “mg/ml,” for “mg/ml”
as §3, with “IL-8” for “MCP-1”, “Geldanamycin” for “Eldanamycin”
After a 24-hour stimulation, supernatants were collected to quantify IL-8 production. IL-8 concentrations in the supernatants were determined by ELISA using recombinant human IL-8 to obtain a standard curve. A 96-well MAXISORB plate was coated with 100 μL of anti-human IL-8 Capture Antibody diluted in Coating Buffer (0.1M sodium carbonate pH 9.5) overnight at 4° C. The dilution of Capture Antibody used was lot-specific and was determined empirically. Capture antibody was then aspirated and the plate washed 3 times with Wash Buffer (PBS, 0.05% TWEEN-20). Plates were blocked for 1 hour at room temperature with 200 μL/well of Assay Diluent (PBS, 10% FCS pH 7.0). After blocking, plates were washed 3 times with Wash Buffer. Standards and sample dilutions were prepared as follows: (a) sample supernatants were diluted 1/100 and 1/1000; (b) recombinant human IL-8 was prepared at 200 pg/ml and serially diluted to yield as standard curve of 3.1 pg/ml to 200 pg/ml Sample supernatants and standards were assayed in triplicate and were incubated at room temperature for 2 hours after addition to the plate coated with Capture Antibody The plates were washed 5 times and incubated with 100 μL of Working Detector (biotinylated anti-human IL-8 detection antibody+avidin-HRP) for 1 hour at room temperature. Following this incubation, the plates were washed 7 times and 100 μL of Substrate Solution (Tetramethylbenzidine, H2O2) was added to plates and incubated for 30 minutes at room temperature. Stop Solution (2 NH2SO4) was then added to the wells and a yellow color reaction was read at 450 nm with A correction at 570 nm. Mean absorbance was determined from triplicate data readings and the mean background was subtracted. IL-8 concentration values were obtained from the standard curve. […] The IC50 values for the following additional compounds were determined using this assay: IC50 (nM): 17-AAG, 56; mycophenolic acid, 549; resveratrol, 507; rapamycin, 4; 41; SP600125, 344; halofuginone, 641; D-mannose-6-phosphate, 220; epirubicin hydrochloride, 654; topotemay, 257; mithramycin, 33; daunorubicin, 421; celastrol, 490; chromomycin A3, 36

[9] = test system: Smooth muscle cells; assay: Proliferation of smooth muscle cells; format: cell-based; conditions: 72 hours, CYQUANT; read-out: IC50 proliferation of smooth muscle cells
Experimental: Smooth muscle cells at 70-90% confluency were trypsinized, replated at 600 cells/well in media in 96-well plates and allowed to attachment overnight. Paclitaxel was prepared in DMSO at a concentration of 10^−2 M and diluted 10-fold to give a range of stock concentrations (10^−8 M to 10^−2 M). […] Each drug concentration was tested in triplicate wells. Plates containing cells and paclitaxel were incubated at 37° C. for 72 hours.
To terminate the assay, the media was removed by gentle aspiration A 1/400 dilution of CYQUANT 400×GR dye indicator (Molecular Probes; Eugene, Oreg.) was added to 1× Cell Lysis buffer, and 200 μL of the mixture was added to the wells of the plate. Plates were incubated at room temperature, protected from light for 3-5 minutes.

[10] = test system: TNFα production by THP-1 cells; assay: TNF-alpha production by macrophages; format: cell-based, human; conditions: read-out: IC50 TNFα production
Experimental: as §2, with “12-well” for “12 well”, “opsonization.” for “opsonization. Geldanamycin was prepared in DMSO at a concentration of 10^−2 M and serially diluted 10-fold to give a range of stock concentrations (10^−8 M to 10^−2 M).”
THP-1 cells were stimulated to produce TNFα by the addition of 1 mg/ml opsonized zymosan. […] Each drug concentration was tested in triplicate wells. Plates were incubated at 37° C. for 24 hours.
After a 24-hour stimulation, supernatants were collected to quantify TNFα production. TNFα concentrations in the supernatants were determined by ELISA using recombinant human TNFα to obtain a standard curve A 96-well MaxiSorb plate was coated with 100 μL of anti-human TNFα Capture Antibody diluted in Coating Buffer (0.1M sodium carbonate pH 9 5) overnight at 4° C. The dilution of Capture Antibody used was lot-specific and was determined empirically. Capture antibody was then aspirated and the plate washed 3 times with Wash Buffer (PBS, 0.05% TWEEN-20) Plates were blocked for 1 hour at room temperature with 200 μL/well of Assay Diluent (PBS, 10% FCS pH 7.0). After blocking, plates were washed 3 times with Wash Buffer. […] Sample supernatants and standards were assayed in triplicate and were incubated at room temperature for 2 hours after addition to the plate coated with Capture Antibody. The plates were washed 5 times and incubated with 100 μL of Working Detector (biotinylated anti-human TNFα detection antibody+avidin-HRP) for 1 hour at room temperature. Following this incubation, the plates were washed 7 times and 100 μL of Substrate Solution (tetramethylbenzidine, H2O2) was added to plates and incubated for 30 minutes at room temperature. […] Mean absorbance was determined from triplicate data readings and the mean background was subtracted. TNFα concentration values were obtained from the standard curve.

[11] = test system: IL-1β production by THP-1 cells; assay: IL-1β production by macrophages; format: cell-based, human; conditions: read-out: IC50 IL-1β production
[12] = test system: human fibroblasts; assay: Cell proliferation of fibroblasts; format: cell-based; conditions: Fibroblast, 72 hours, CYQUANT, read-out: IC50 cell proliferation of fibroblasts
Procedure, shortened: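 Human fibroblasts plated at 600 cells/well, attached overnight, then exposed to drug in triplicate for 72 h at 37°C. Cell content read with CYQUANT GR dye in lysis buffer after 3-5 min at room temperature.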

[13] = THP-1 cells stimulated with opsonized zymosan, 24 hours
[14] = Homo sapiens, THP-1 cells stimulated with opsonized zymosan, 24 hours

Sc1ncc2[nH]cnc2n1 [2-mercaptopurine]
Minimum inhibitory concentration [1]: N

O=c1[nH]cc(F)c(=O)[nH]1 [5-fluorouracil]
Minimum inhibitory concentration [2]: 10^−4 Molar | Minimum inhibitory concentration [1]: 10^−6 Molar | Minimum inhibitory concentration [3]: 10^−7 Molar | Minimum inhibitory concentration [4]: 10^−5 Molar | Minimum inhibitory concentration [5]: 10^−7 Molar | Minimum inhibitory concentration [6]: 10^−6 Molar

Sc1ncnc2nc[nH]c12 [6-mercaptopurine]
Minimum inhibitory concentration [1]: N

CO[C@@H]1[C@H](O)C[C@@H](O[C@@H]2C[C@H](Oc3cc4cc5c(c(O)c4c(O)c3C)C(=O)[C@@H](O[C@H]3C[C@@H](O[C@H]4C[C@@H](O[C@H]6C[C@](C)(O)[C@@H](OC(C)=O)[C@H](C)O6)[C@H](O)[C@@H](C)O4)[C@H](O)[C@@H](C)O3)[C@H]([C@H](OC)C(=O)[C@@H](O)[C@@H](C)O)C5)O[C@H](C)[C@@H]2OC(C)=O)O[C@@H]1C [chromomycin A3]
pIC50 [7, 13]: 7.43 | pIC50 [8]: 7.44 | pIC50 [9]: 7.92 | pIC50 [10, 13]: 6.40 | pIC50 [11]: 6.83

COc1cccc2c1C(=O)c1c(O)c3c(c(O)c1C2=O)C[C@@](O)(C(C)=O)C[C@@H]3O[C@H]1C[C@H](N)[C@H](O)[C@H](C)O1 [daunorubicin]
pIC50 [7, 13]: 6.24 | pIC50 [8]: 6.38 | pIC50 [9]: 7.30 | pIC50 [10, 13]: 6.71 | pIC50 [11]: 6.29

COc1cccc2c1C(=O)c1c(O)c3c(c(O)c1C2=O)C[C@@](O)(C(=O)CO)C[C@@H]3O[C@H]1C[C@H](N)[C@@H](O)[C@H](C)O1 [epirubicin hydrochloride]
pIC50 [8]: 6.18 | pIC50 [9]: 7.72 | pIC50 [11, 13]: 6.11

O=C1c2ccccc2-[n+]2ccc3c([nH]c4ccccc43)c21 [fascaplycin, Fascaplysin]
pIC50 ([7]; Homo sapiens, THP-1, 24 h): 6.67 | pIC50 [9]: 6.29 | pIC50 ([10]; Homo sapiens, THP-1, 24 h): 6.15 | pIC50 [12]: 5.92 to 6.22 | pIC50 ([11]; Homo sapiens, THP-1, 24 h): 6.37

O=C(CC1NCCCC1O)Cn1cnc2cc(Br)c(Cl)cc2c1=O (stereo not drawn) [halofuginone]
pIC50 [7, 14]: 8.05 | pIC50 ([8]; Homo sapiens): 6.19 | pIC50 [9]: 7.09 | pIC50 [12]: 7.00 to 8.00 | pIC50 ([11]; Homo sapiens, THP-1, 24 h): 6.04

O=C1c2c(O)ccc(O)c2C(=O)c2c(NCCNCCO)ccc(NCCNCCO)c21 [mitoxantrone, 9,10-anthracenedione, 1,4-dihydroxy-5,8-bis((2-((2-hydroxyethyl)amino)ethyl)amino)-]
pIC50 [7, 14]: 7.21 | Minimum inhibitory concentration [1]: 10^−5 Molar | pIC50 [9]: 9.00

CC[C@@]1(O)C(=O)OCc2c1cc1n(c2=O)Cc2cc3c(CN(C)C)c(O)ccc3nc2-1 [topotemay, Topotecan]
pIC50 [7, 13]: 6.29 | pIC50 [8]: 6.59 | pIC50 [9]: 7.29 | pIC50 [11, 13]: 6.29

rapamycin
pIC50 [7, 13]: 10.30 | pIC50 [8]: 8.40 | pIC50 [10, 13]: 7.29 | pIC50 [11, 13]: 9.32
